From article PMC10254170, “Diastereoselective Synthesis of the Borylated D-Galactose Monosaccharide 3-Boronic-3-Deoxy-D-Galactose and Biological Evaluation in Glycosidase Inhibition and in Cancer for Boron Neutron Capture Therapy (BNCT)” (Molecules, 2023)
Read-outs that look alike come from different tables or passages of the source.

Key:
snail β-mannosidase = assay: Glycosidase inhibition, snail β-mannosidase; assay type: biochemical; conditions: for inhibition %: in methanol
Source text: (§1) Glycosidase modulation studies need to explore selectivity as well as potency. Our drugs and controls are therefore screened against a panel of glycosidases in methanol (Table 1) to identify the glycosidase-related disease area(s), selectivity profile, and potency of biological action for each drug. The presence of organic boron covalently bonded to the drug structure also grants a reduced toxicity profile. Following the glycosidase inhibition range recommendations, an IC50 value >250 μm denotes weak inhibition, 100–249 μm denotes moderate inhibition, 10–99 μm good inhibition, 0.1–9 μm potent inhibition, and <0.1 μm very potent inhibition. […] Our boronated D-galactose 7 represents a novel lead in glycosidase inhibition.
(§2) The glycosidases screened are the following: rice α-glucosidase, yeast α-glucosidase, Bacillus α-glucosidase, rat intestinal maltase α-glucosidase, almond β-glucosidase, bovine liver β-glucosidase, coffee beans α-galactosidase, bovine liver β-galactosidase, Jack bean α-mannosidase, snail β-mannosidase, Penicillium decumbens α-L-rhamnosidase, bovine kidney α-L-fucosidase, Eschierichia coli β-glucuronidase, bovine liver β-glucuronidase, porcine kidney trehalase, Aspergillus niger amyloglucosidase, and bovine kidney N-acetyl-β-glucosaminidase. The disease areas for each glycosidase are summarized in [1].
(§3) The enzymes α-glucosidase (from yeast), β-glucosidases (from almond and bovine liver), α-galactosidase (from coffee beans), β-galactosidase (from bovine liver), α-mannosidase (from Jack bean), β-mannosidase (from snail), α-L-rhamnosidase (from Penicillium decumbens), α-L-fucosidase (from bovine kidney), trehalase (from porcine kidney), β-glucuronidases (from E. coli and bovine liver), amyloglucosidase (from A. niger), para-nitrophenyl glycosides, and various disaccharides were purchased from Sigma-Aldrich Co.
(§4) Brush border membranes were prepared from the rat small intestine according to the method of Kessler et al. and were assayed at pH 6.8 for rat intestinal maltase using maltose. For rat intestinal maltase, porcine kidney trehalase, and A. niger amyloglucosidase activities, the reaction mixture contained 25 mM maltose and the appropriate amount of enzyme, and the incubations were performed for 10–30 min at 37 °C. The reaction was stopped by heating at 100 °C for 3 min. After centrifugation (600 g; 10 min), the resulting reaction mixture was added to the Glucose CII-test Wako (Wako Pure Chemical Ind., Osaka, Japan). The absorbance at 505 nm was measured to determine the amount of the released D-glucose. Other glycosidase activities were determined using an appropriate para-nitrophenyl glycoside as substrate at the optimum pH of each enzyme. The reaction mixture contained 2 mM of the substrate and the appropriate amount of enzyme. The reaction was stopped by the addition of 400 mM Na2CO3. The released para-nitrophenol was measured spectrometrically at 400 nm. All reactions run in methanol.

yeast α-glucosidase = assay: Glycosidase inhibition, yeast α-glucosidase; assay type: biochemical; conditions: for inhibition %: in methanol
Source text: as §1, §2, §3, §4

[1] = molecular target: T1, bovine liver β-glucuronidase (Bos taurus, UniProt A3KMY8); assay: Glycosidase inhibition, bovine liver β-glucuronidase; assay type: biochemical
T1 construct: purchased Sigma-Aldrich Co; host or cells: bovine liver
T1 sequence (A3KMY8 1-652): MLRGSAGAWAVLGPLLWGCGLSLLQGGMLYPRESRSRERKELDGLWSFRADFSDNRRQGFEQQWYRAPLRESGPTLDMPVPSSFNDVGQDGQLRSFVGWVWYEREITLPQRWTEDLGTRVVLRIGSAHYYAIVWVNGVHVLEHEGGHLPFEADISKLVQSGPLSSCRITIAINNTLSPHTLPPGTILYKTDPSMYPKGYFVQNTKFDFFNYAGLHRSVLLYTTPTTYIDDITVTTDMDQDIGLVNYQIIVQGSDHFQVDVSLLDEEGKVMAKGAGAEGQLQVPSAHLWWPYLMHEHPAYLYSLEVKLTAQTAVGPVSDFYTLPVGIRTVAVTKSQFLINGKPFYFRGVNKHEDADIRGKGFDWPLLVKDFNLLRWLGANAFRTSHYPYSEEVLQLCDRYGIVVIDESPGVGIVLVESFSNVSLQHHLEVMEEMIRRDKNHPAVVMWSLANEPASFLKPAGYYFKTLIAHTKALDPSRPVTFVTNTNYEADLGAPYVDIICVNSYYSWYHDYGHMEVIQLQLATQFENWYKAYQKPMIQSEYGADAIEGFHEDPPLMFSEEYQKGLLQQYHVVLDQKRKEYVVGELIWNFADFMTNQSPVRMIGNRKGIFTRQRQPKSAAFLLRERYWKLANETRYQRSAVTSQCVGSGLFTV
Source text: as §1, §2, §3, §4

[2] = system: MiaPaCa-2 (pancreatic carcinoma); assay: Cancer screening (MTT growth inhibition), MIA-Pa-Ca2; assay type: cell-based; conditions: 72 h; for inhibition at 25 µM: MIA PaCa-2, 25 µM of drug, read-out: Percentage (%) cell growth inhibition; for inhibition at 25 µM / Percentage (%) cell growth inhibition: n = 3, mean ± SEM; for Percentage (%) cell growth inhibition: 25 µM of drug
Description: (§5) All test agents were prepared as stock solutions (20 mM) in dimethyl sulfoxide (DMSO) and stored at −20 °C. Cell lines used in the study included: HT29 (colorectal carcinoma), U87 and SJ-G2 (glioblastoma), MCF-7 (breast carcinoma), A2780 (ovarian carcinoma), H460 (lung carcinoma), A431 (skin carcinoma), Du145 (prostate carcinoma), BE2-C (neuroblastoma), MiaPaCa-2 (pancreatic carcinoma), SMA560 (spontaneous murine astrocytoma), and ADDP (Cis Res Ovarian), together with one non-tumor-derived normal breast cell line (MCF10A). All cell lines were incubated in a humidified atmosphere with 5 % CO2 at 37 °C. The cancer cell lines were maintained in Dulbecco’s modified Eagle’s medium (DMEM; Sigma, Australia) supplemented with fetal bovine serum (10%), sodium pyruvate (10 mM), penicillin (100 IUmL^−1), streptomycin (100 µg mL^−1), and L-glutamine (2 mM).
(§6) Growth inhibition was determined by plating cells in duplicate in medium (100 µL) at a density of 2500–4000 cells per well in 96-well plates. On day 0 (24 h after plating), when the cells are in logarithmic growth, medium (100 µL) with or without the test agent was added to each well. After 72 h of drug exposure, growth inhibitory effects were evaluated using the (3-(4,5-dimethyltiazol-2-yl)-2,5-diphenyltetrazolium bromide) (MTT) assay and absorbance read at 540 nm. The percentage growth inhibition was calculated at a fixed concentration of 25 µM, based on the difference between the optical density values on day 0 and those at the end of drug exposure. Each data point is the mean ± the standard error of the mean (SEM) calculated from three replicates, which were performed on separate occasions and in separate cell line passages.

[3] = system: Du145 (prostate carcinoma); assay: Cancer screening (MTT growth inhibition), Du145; assay type: cell-based; conditions: 72 h; for inhibition at 25 µM: DU-145, 25 µM of drug, read-out: Percentage (%) cell growth inhibition; for inhibition at 25 µM / Percentage (%) cell growth inhibition: n = 3, mean ± SEM; for Percentage (%) cell growth inhibition: 25 µM of drug
Description: as §5, §6

[4] = molecular target: T2, Aspergillus niger amyloglucosidase (Aspergillus niger, UniProt P69328); assay: Glycosidase inhibition, A. niger amyloglucosidase; assay type: biochemical
T2 construct: purchased Sigma-Aldrich Co
Source text: as §1, §2, §3, §4

[5] = system: bovine liver β-glucosidase; assay: Glycosidase inhibition, bovine liver β-glucosidase; assay type: biochemical; conditions: for inhibition %: in methanol
Source text: as §1, §2, §3, §4

almond β-glucosidase = assay: Glycosidase inhibition, almond β-glucosidase; assay type: biochemical; conditions: for inhibition %: in methanol
Source text: as §1, §2, §3, §4

rice α-glucosidase = rice α-glucosidase (Oryza sativa subsp. japonica, UniProt Q653V7); assay: Glycosidase inhibition, rice α-glucosidase; assay type: biochemical
Source text: as §1, §2, §4

[6] = at 100 μM, in methanol, read-out: inhibition %
[7] = at 100 μM, read-out: NI: No inhibition
[8] = at 1000 μM, in methanol, read-out: inhibition %
[9] = at 1000 μM, read-out: NI: No inhibition

T2 sequence (P69328 25-640): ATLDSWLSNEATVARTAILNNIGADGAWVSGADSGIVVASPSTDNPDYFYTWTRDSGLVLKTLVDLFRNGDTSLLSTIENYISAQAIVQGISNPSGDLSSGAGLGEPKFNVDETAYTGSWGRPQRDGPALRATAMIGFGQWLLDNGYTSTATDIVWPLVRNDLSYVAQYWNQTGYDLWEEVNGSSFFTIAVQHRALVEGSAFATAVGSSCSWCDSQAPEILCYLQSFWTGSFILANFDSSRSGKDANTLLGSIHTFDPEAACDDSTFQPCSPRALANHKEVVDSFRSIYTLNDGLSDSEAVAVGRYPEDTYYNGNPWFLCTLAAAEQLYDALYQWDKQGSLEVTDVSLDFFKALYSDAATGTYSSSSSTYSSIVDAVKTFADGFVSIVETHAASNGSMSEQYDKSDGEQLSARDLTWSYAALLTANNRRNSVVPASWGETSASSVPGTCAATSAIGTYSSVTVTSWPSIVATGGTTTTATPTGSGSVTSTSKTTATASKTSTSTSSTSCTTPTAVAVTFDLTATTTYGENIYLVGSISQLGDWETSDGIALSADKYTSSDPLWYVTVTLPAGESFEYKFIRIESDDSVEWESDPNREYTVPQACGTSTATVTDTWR
Chain of rice α-glucosidase (Q653V7 34-885): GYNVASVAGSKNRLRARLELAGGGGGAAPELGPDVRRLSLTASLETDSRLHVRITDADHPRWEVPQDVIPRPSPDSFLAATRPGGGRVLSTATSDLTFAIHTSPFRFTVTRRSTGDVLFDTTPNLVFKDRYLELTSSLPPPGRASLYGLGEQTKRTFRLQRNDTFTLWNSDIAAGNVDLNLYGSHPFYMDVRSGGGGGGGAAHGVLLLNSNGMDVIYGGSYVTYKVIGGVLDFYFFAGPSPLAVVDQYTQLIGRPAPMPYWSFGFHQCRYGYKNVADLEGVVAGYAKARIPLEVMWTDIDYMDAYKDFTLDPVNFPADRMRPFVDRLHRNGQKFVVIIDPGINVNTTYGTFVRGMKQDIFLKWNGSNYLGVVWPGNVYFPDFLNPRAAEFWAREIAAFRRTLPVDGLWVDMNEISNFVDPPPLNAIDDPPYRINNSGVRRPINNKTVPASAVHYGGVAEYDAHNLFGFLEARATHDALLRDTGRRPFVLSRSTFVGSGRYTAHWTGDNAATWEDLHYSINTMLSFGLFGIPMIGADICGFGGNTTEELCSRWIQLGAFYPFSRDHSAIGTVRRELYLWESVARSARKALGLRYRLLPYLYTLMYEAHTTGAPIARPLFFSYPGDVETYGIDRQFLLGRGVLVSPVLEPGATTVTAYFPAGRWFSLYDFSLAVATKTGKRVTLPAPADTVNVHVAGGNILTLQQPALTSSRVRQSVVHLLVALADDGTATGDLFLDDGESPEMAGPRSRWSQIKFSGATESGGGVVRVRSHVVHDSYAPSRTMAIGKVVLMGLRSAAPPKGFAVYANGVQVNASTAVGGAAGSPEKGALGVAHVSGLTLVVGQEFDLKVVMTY

Molecule | NI: No inhibition (snail β-mannosidase; at 100 μM) | inhibition % (snail β-mannosidase; at 100 μM) [%] | NI: No inhibition (yeast α-glucosidase; at 100 μM) | inhibition % (yeast α-glucosidase; at 100 μM) [%] | inhibition at 100 µM [1, 6] [%] | inhibition at 100 µM [1, 7] [%] | inhibition at 25 µM ([2]; Homo sapiens) [%] | inhibition at 25 µM ([3]; Homo sapiens) [%] | inhibition at 100 µM [4, 6] [%] | inhibition at 100 µM [4, 7] [%] | NI: No inhibition ([5]; at 100 μM) | inhibition % ([5]; at 100 μM) [%] | NI: No inhibition (almond β-glucosidase; at 100 μM) | inhibition % (almond β-glucosidase; at 100 μM) [%] | inhibition at 100 µM (rice α-glucosidase; [6]) [%] | inhibition at 100 µM (rice α-glucosidase; [7]) [%] | NI: No inhibition (snail β-mannosidase; at 1000 μM) | inhibition % (snail β-mannosidase; at 1000 μM) [%] | NI: No inhibition (yeast α-glucosidase; at 1000 μM) | inhibition % (yeast α-glucosidase; at 1000 μM) [%] | further results
N[C@@H](Cc1ccc(B(O)O)cc1)C(=O)O [BPA, 4-borono-L-phenylalanine] | NI (No inhibition (less than 50% inhibition at 100 μM)) | 2.1 | NI (No inhibition (less than 50% inhibition at 100 μM)) | 0 | 7.4 | < 50 | 3 ± 3 | 19 ± 10 | 0 | < 50 | NI (No inhibition (less than 50% inhibition at 100 μM)) | 0 | NI (No inhibition (less than 50% inhibition at 100 μM)) | 0 | 0 | < 50 |  |  |  |  | 
CC1(C)OCC(C2OC3OC(C)(C)OC3C2[B-]23OCC[NH+]2CCO3)O1 [Compound 6, 3-Deoxy-3-Boronodiethanolamine-1,2:5,6-Di-O-isopropylidene-α-D-galactofuranose] | NI (No inhibition (less than 50% inhibition at 100 μM)) | 0 | NI (No inhibition (less than 50% inhibition at 100 μM)) | 0 | 12.4 | < 50 | 3 ± 1 | 0 | 0 | < 50 | NI (No inhibition (less than 50% inhibition at 100 μM)) | 12.2 | NI (No inhibition (less than 50% inhibition at 100 μM)) | 0.3 | 5.9 | < 50 |  |  |  |  | 
OCC1OC(O)C(O)C(B(O)O)C1O [Compound 7, 3-Boronic-3-Deoxy-D-galactose] |  |  |  |  |  |  | 1 ± 2 | 7 ± 4 |  |  |  |  |  |  |  |  | NI (No inhibition (less than 50% inhibition at 1000 μM)) | 0 | NI (No inhibition (less than 50% inhibition at 1000 μM)) | 12.1 | inhibition at 1000 µM [1, 8]: 32.4%; inhibition at 1000 µM [1, 9]: < 50%; GI50 ([2]; Homo sapiens, MIA PaCa-2, dose response, read-out: GI50 = Concentration that inhibits cell growth by 50%): > 50 µM; GI50 ([3]; Homo sapiens, DU-145, dose response, read-out: GI50 = Concentration that inhibits cell growth by 50%): > 50 µM; inhibition at 1000 µM [4, 8]: 1.5%; inhibition at 1000 µM [4, 9]: < 50%; NI: No inhibition ([5]; at 1000 μM): NI (No inhibition (less than 50% inhibition at 1000 μM)); inhibition % ([5]; at 1000 μM): 12.6%; NI: No inhibition (almond β-glucosidase; at 1000 μM): NI (No inhibition (less than 50% inhibition at 1000 μM)); inhibition % (almond β-glucosidase; at 1000 μM): 1.3%; inhibition at 1000 µM (rice α-glucosidase; [8]): 33.8%; inhibition at 1000 µM (rice α-glucosidase; [9]): < 50%
N[C@@H](Cc1ccc(B(O)O)cc1)C(=O)O [^10B-BPA] | NI (No inhibition (less than 50% inhibition at 100 μM)) | 0.3 | NI (No inhibition (less than 50% inhibition at 100 μM)) | 0 |  |  |  |  |  |  | NI (No inhibition (less than 50% inhibition at 100 μM)) | 14.2 | NI (No inhibition (less than 50% inhibition at 100 μM)) | 0 |  |  |  |  |  |  | NI: No inhibition ([1]; at 100 μM): NI (No inhibition (less than 50% inhibition at 100 μM)); inhibition % ([1]; at 100 μM, in methanol): 0%; Percentage (%) cell growth inhibition [2]: 11 ± 3%; Percentage (%) cell growth inhibition [3]: 15 ± 9%; inhibition % ([4]; at 100 μM, in methanol): 0%; NI: No inhibition (rice α-glucosidase; at 100 μM): NI (No inhibition (less than 50% inhibition at 100 μM)); inhibition % (rice α-glucosidase; at 100 μM, in methanol): 0%
Borocaptate sodium [BSH] |  |  |  |  |  |  |  |  |  |  |  |  |  |  |  |  | NI (No inhibition (less than 50% inhibition at 1000 μM)) | 19.2 | NI (No inhibition (less than 50% inhibition at 1000 μM)) | 6.9 | NI: No inhibition ([1]; at 1000 μM): NI (No inhibition (less than 50% inhibition at 1000 μM)); inhibition % ([1]; at 1000 μM, in methanol): 19.6%; Percentage (%) cell growth inhibition [2]: 2 ± 6%; Percentage (%) cell growth inhibition [3]: 0 ± 8%; inhibition % ([4]; at 1000 μM, in methanol): 0%; NI: No inhibition ([5]; at 1000 μM): NI (No inhibition (less than 50% inhibition at 1000 μM)); inhibition % ([5]; at 1000 μM): 15%; NI: No inhibition (almond β-glucosidase; at 1000 μM): NI (No inhibition (less than 50% inhibition at 1000 μM)); inhibition % (almond β-glucosidase; at 1000 μM): 0%; NI: No inhibition (rice α-glucosidase; at 1000 μM): NI (No inhibition (less than 50% inhibition at 1000 μM)); inhibition % (rice α-glucosidase; at 1000 μM, in methanol): 0%
